Here are results for six compounds from patent US7129271B2, “Compounds for pest control and methods for their use” (The United States of America as represented by the …, priority 2000, dated 2006).

SMILES strings stand for the structures. ≈ marks a conversion by molar mass, not a printed value. Like-named read-outs stand apart in the source and are kept apart here.

In general, mortality refers to the percentage killed. Read a low mortality as more survivors.

One series deals with Culex p. pipiens. Kind of series: Mosquito susceptibility, serial dilutions (Example 8). The settings on record: in vivo.
For the next series, the system named is I. scapularis nymphs. Kind of series: Tick bioassay, modified disposable pipette method, treated vials (Example 9). The format is in vivo, Ixodes scapularis. The protocol: Tick Colonies. […] There was no known pesticide used at this location. Ticks were maintained at 21° C., 90% RH, and received a 16:8 h (light:dark) cycle as described in […]. Med. […] Tick and Flea Bioassays. […] A control treated with acetone only was run with each series. Tick and flea susceptibility was evaluated using a modified disposable pipette method. See, Barnard, D. R., et al., J. Econ. […] Three to 4 holes were made in the plastic cap to allow for air exchange. Nymphal ticks and adult fleas were then placed directly into the vials using forceps. Vials containing ticks or fleas were placed in desiccators for 24 h at 21° C. and 90% RH. […] For each time point, if ticks were incapable of movement, maintaining normal posture, leg coordination, ability to right themselves, or any signs of life, they were considered moribund or dead.

The subject of a further series is X. cheopis adults. Kind of series: Flea bioassay, treated vials (Example 9). It is filed as in vivo. The settings on record: 24 h exposure, 95% CI in parentheses. The protocol:
Flea Colonies. Adult X. cheopis fleas (1–3 wk old) were obtained from a colony founded more than eight years ago using adults received from Tom Schwan, Rocky Mountain Laboratories, Hamilton, Mont. The area from which these original adult fleas were obtained, and the resulting colony, have no known histories of pesticide exposure.
Tick and Flea Bioassays. Concentrations of the compounds were prepared by 2-fold serial dilutions of a 0.5% (wt:vol) solution of the extracts in acetone. […] A control treated with acetone only was run with each series. Tick and flea susceptibility was evaluated using a modified disposable pipette method. See, Barnard, D. R., et al., J. Econ. Entomol.
(§1) The inner surface of 2-dram friction cap vials were treated with the compound/acetone solution, or acetone only as a control, and left to air-dry overnight. Three to 4 holes were made in the plastic cap to allow for air exchange. Nymphal ticks and adult fleas were then placed directly into the vials using forceps. Vials containing ticks or fleas were placed in desiccators for 24 h at 21° C. and 90% RH. Morbidity and mortality was recorded at 1, 2, 4, 8, and 24 h after initial exposure.

The test system of a further series is Ae. aegypti adults. Kind of series: Mosquito bottle bioassay (Example 9). The settings on record: 24 h exposure, 95% CI in parentheses. The format is in vivo. On the procedure:
Mosquito Colonies. Aedes aegypti adult mosquitoes were obtained from an existing colony at the Centers for Disease Control and Prevention (CDC), Division of Vector-Borne Infectious Diseases (DVBID), Fort Collins, Colo. This colony has been maintained for over fifteen years with no known history of exposure to pesticides. Mosquitoes were reared at 28° C., 85% RH, and a 14:10 h (light:dark) cycle. Larvae were grown in de-ionized water and fed ground liver powder solution ad libitum. Fourth instars were removed and placed in emergence cages, and adults were fed a 2% sucrose solution until assayed. Adults were exposed to test products at 4–7 d after emergence.
(§2) Mosquit Bioassay. Adult mosquitoes were tested using the bottle bioassay method of Brogden, W. G., and McAllister, J. C., J. Am. Mosq. Control Assoc. 14:159–64 (1998), with minor modifications. Natural product extracts were two-fold serially diluted for a total of 8 concentrations ranging from 0.002% to 0.25% in 1.5 ml of acetone. Individual dilutions were added to 250 ml Wheaton glass bottles and capped. Bottles were manipulated to evenly coat all inner surfaces. The caps were removed and bottles were allowed to air-dry overnight. Once bottles were completely dry, 10–50 adult mosquitoes were aspirated into the bottles. Mosquitoes were held in the bottles for 24 h at 23° C. and 85% RH. Morbidity and mortality were recorded at 15, 30, 45, and 60 min and 24 hour intervals. One bottle for each replicate was treated with acetone only and served as a control. The dose-mortality data was evaluated with probit analysis, using the LdP Line software, to determine LC50 and LC90 values.

The subject of another series is Ixodes scapularis nymphs. Kind of series: Residual activity, treated vials aged before loading (Example 9). The format is in vivo. On the procedure:
(§3) Tick and Flea Bioassays. Concentrations of the compounds were prepared by 2-fold serial dilutions of a 0.5% (wt:vol) solution of the extracts in acetone. The approximate toxicity of individual compounds was determined with a total of 8 doses ranging from 0.002% to 0.25%. […] A control treated with acetone only was run with each series. Tick and flea susceptibility was evaluated using a modified disposable pipette method. See, Barnard, D. R., et al., J. Econ. Entomol. 74:466–69 (1981).
as §1, with “Groups of 10 nymphal I. scapularis and X. cheopis fleas were used in all tests, resulting in a total of 5,240 nymphs and 4,860 fleas exposed to the compounds. The” for “The”

Series [1] concerns Xenopsylla cheopis adults. Described as above. It is filed as in vivo. The protocol:
as §3
as §1, with “Groups of 10 nymphal I. scapularis and X. cheopis fleas were used in all tests, resulting in a total of 5,240 nymphs and 4,860 fleas exposed to the compounds. The” for “The”

For series [2], the system named is Aedes aegypti adults. Kind of series: Residual activity, treated bottles aged before loading (Example 9). The format is in vivo. On the procedure:
as §2

Series [3] relates to ticks, fleas, and mosquitoes. Kind of series: Residual activity, overall statements for ticks, fleas and mosquitoes (Example 9). The note with it: 1 to 4 weeks after treatment.
Series [4] relates to nymphal Ixodes scapularis. Kind of series: Treated-vial biocidal screening, 2% acetone solutions (Example 2). The format is in vivo. On the procedure: (§4) Samples of the compounds listed below Were obtained from Dr. Karchesy, a co-inventor, and screened for biocidal activities against nymphal Ixodes scapularis. In this example, 2% acetone solutions (wt./vol.) of the compounds were applied to inner surfaces of 2-dram friction cap vials. Vials and caps were treated then allowed to dry for a minimum of 4 hours before placing 10 nymphs in each container. These same vials were used to challenge additional nymphs and adult I. scapularis ticks and adult Xenopsylla cheopis fleas through five weeks to observe any possible residual activity.
(§5) Numbers in parentheses refer to length of treatment in terms of hours (h) or weeks (wk). Data is presented in terms of number killed/number tested. For test periods longer than 24 hours, the treated vials were allowed to sit for the stated period after drying (72 h, 4 wk, or 5 wk) and each group of arthropods was added to the vials for the final 24 h of the test period.

Series [5] relates to adult I. scapularis ticks. Kind of series: Treated-vial biocidal screening, residual challenge (Example 2). It is filed as in vivo, Ixodes scapularis. The note with it: treated vials sat 4 wk; arthropods added for final 24 h. The protocol: as §4, §5
Series [6] deals with adult Xenopsylla cheopis fleas. Described as above. It is filed as in vivo. The settings on record: treated vials sat 5 wk; arthropods added for final 24 h. The protocol: as §4, §5
For series [7], the system named is Aedes aegypti adults. Kind of series: Treated-vial bioassay on mosquito (Example 3). The note with it: 24 hours challenge. It is filed as in vivo. On the procedure:
as §4
Using a bioassay method similar to that presented in Example #2, the susceptibility of Aedes aegypti adults to the five compounds presented in Example #2 at 24 hours challenge was determined to be 100% mortality except for nootkatin (20% mortality).

Series [8] deals with I. scapularis nymphs, X. cheopis adults, and Ae. aegypti adults. Kind of series: Initial screening against all three arthropods (Example 9). The format is in vivo. The note with it: 24 hours exposure; ticks, fleas, mosquitoes. The protocol:
Valencene-13-aldehyde was prepared by oxidation of valencene with SeO2. […] Commercial samples of nootkatone for comparison were obtained from Bedoukian Research, Inc., Danbury, Conn. (semi-synthetic crystalline) and Frutarom, Inc. N.J. (from grapefruit oil). […] The compounds identified by an asterisk—nos.

In series [9] the test system is ticks, fleas, and mosquitos. Kind of series: Bioassay of Example 2 on ticks, fleas and mosquitos (Examples 4 and 6). The format is in vivo. The protocol: as §4
Nootkatol was tested using the bioassay presented in Example 2.
Two nootkatone samples were compared to nootkatone isolated from Alaska yellow cedar using the method presented in Example 1. The first sample was a natural extract of nootkatone taken from grapefruit oil purchased commercially. The second sample was a synthetically produced nootkatone purchased commercially.
Both samples were compared to the nootkatone originating from Alaska yellow cedar in terms of their biocidal activities. Using a bioassay method similar to that presented in Example 2, no differences were discernible among the nootkatone samples in terms of their biocidal effect on ticks, fleas and mosquitos.

Where [10] appears, read: residual activity at 1 week after treatment.
Setting [11] is: residual activity at 2 weeks after treatment.
Setting [12] is: residual activity at 4 weeks after treatment.
Setting [13] is: 24 h exposure, 95% CI in parentheses.

`C=C(CO)C1CCC2=CCC[C@@H](C)[C@]2(C)C1` (some centres unmarked) [Compound 10, 13-hydroxy-valencene]: the “C. pipiens LD50” value with Culex p. pipiens was < 4.5×10^−3. Also, the LC50 in the series with I. scapularis nymphs (Ixodes scapularis, 24 h) is 51 µg/mL (≈ 231 µM); with X. cheopis adults (Xenopsylla cheopis, 24 h, read-out: LC50) it was 83 µg/mL (≈ 377 µM); in the series with Ae. aegypti adults (Aedes aegypti, 24 h, read-out: LC50), 34 µg/mL (≈ 154 µM); in the series on Ixodes scapularis nymphs (setting [10]), 0.0071 (0.0055–0.0091) percent concentration, wt:vol; in the series on Ixodes scapularis nymphs (setting [11]), 0.0083 (0.0057–0.011) percent concentration, wt:vol; with Ixodes scapularis nymphs (setting [12]), 0.031 percent concentration, wt:vol. Further, the LC50 in [1] (setting [10]) is listed as 0.03 (0.022–0.041) percent concentration, wt:vol; in series [1] (setting [11]), 0.039 (0.029–0.053) percent concentration, wt:vol; with Aedes aegypti adults [2] (setting [10]) it was 0.024 (0.02–0.028) percent concentration, wt:vol; in the series with Aedes aegypti adults [2] (setting [11]), 0.014 (0.012–0.016) percent concentration, wt:vol; in the series with Aedes aegypti adults [2] (setting [12]), 0.013 (0.0089–0.017) percent concentration, wt:vol. Besides, the LC90 with I. scapularis nymphs (Ixodes scapularis, 24 h, 24 h exposure, 95% CI in parentheses, read-out: LC90) is 160 µg/mL (≈ 726 µM); in the series with X. cheopis adults (Xenopsylla cheopis, 24 h, read-out: LC90), 210 µg/mL (≈ 953 µM); in the series on Ixodes scapularis nymphs (setting [10]) it was 0.019 (0.014–0.031) percent concentration, wt:vol; with Ixodes scapularis nymphs (setting [11]) it was 0.044 (0.029–0.081) percent concentration, wt:vol; in the series with Ixodes scapularis nymphs (setting [12]), 0.303 percent concentration, wt:vol; in series [1] (setting [10]), 0.113 (0.074–0.226) percent concentration, wt:vol. The LC90 is 0.131 (0.087–0.268) percent concentration, wt:vol in series [1] (setting [11]); 0.058 (0.046–0.081) percent concentration, wt:vol in the series on Aedes aegypti adults [2] (setting [10]); 0.021 (0.019–0.027) percent concentration, wt:vol in the series on Aedes aegypti adults [2] (setting [11]); 0.04 (0.029–0.074) percent concentration, wt:vol with Aedes aegypti adults [2] (setting [12]). The EC90 in the series with Ae. aegypti adults (Aedes aegypti, 24 h, read-out: LC90 (the source's name)) turned out to be 140 µg/mL (≈ 635 µM). For the same compound, the “residual activity (in words)” value in [3] is “considerable biological activity”.

Regarding `CC(C)=CCc1ccc(O)c(=O)cc1C(C)C` [Compound 11, Nootkatin], the “I. scapularis nymphs (24 h), number killed/number tested” value in series [4] (2% acetone solution (wt./vol.) dried in vials, 24 h) is given as 1/10. Also, the “I. scapularis nymphs (72 h), number killed/number tested” value in series [4] (treated vials sat 72 h, arthropods added for final 24 h) was 0/5. Besides, in [5], the “I. scapularis adults (4 wk), number killed/number tested” value is recorded as 0/5. Moreover, the “X. cheopis adults (5 wk), number killed/number tested” value in [6] is listed as 0/5. Further, in the series with Aedes aegypti adults [7], the mortality is listed as 20%. In addition, in the series on Ae. aegypti adults, the LC50 is reported as 0.852 percent concentration, wt:vol and the LC90 is 7.869 percent concentration, wt:vol.

For `COc1cc(C(C)C)ccc1C` [Compound 3, Methyl carvacrol], the “pesticidal activity in initial screening” value in [8] was “no pesticidal activity”.

As to `C=C(C)[C@@H]1CCC2=C[C@@H](O)C[C@@H](C)[C@]2(C)C1` [Compound 12, Nootkatol], the “biocidal activity compared with nootkatene” value in [9] is “essentially equivalent to the activity of nootkatene”. Also, the LC50 was 0.023 (0.017–0.03) percent concentration, wt:vol in the series with I. scapularis nymphs (setting [13]); 0.023 percent concentration, wt:vol with I. scapularis nymphs (24 h exposure, 95% CI in parentheses, listed as compound 12); 0.024 (0.018–0.034) percent concentration, wt:vol in the series with X. cheopis adults; 0.024 percent concentration, wt:vol in the series on X. cheopis adults (listed as compound 12); 0.004 (0.0032–0.0048) percent concentration, wt:vol in the series with Ae. aegypti adults; 0.004 percent concentration, wt:vol with Ae. aegypti adults (listed as compound 12). Moreover, the LC90 with I. scapularis nymphs (setting [13]) was 0.059 (0.042–0.116) percent concentration, wt:vol; in the series with X. cheopis adults, 0.1 (0.065–0.196) percent concentration, wt:vol; with Ae. aegypti adults, 0.01 (0.008–0.014) percent concentration, wt:vol.

As for `CC1=CCC(O)(C(C)C)CC1` (centres unmarked) [Compound 2, Terpinen-4-ol], the “pesticidal activity in initial screening” value in [8] is listed as “no pesticidal activity”.

Consider `CC1=CCC2C(C1)C2(C)C` (centres unmarked) [Compound 1, 3-Carene], for which, in [8], the “pesticidal activity in initial screening” value was “no pesticidal activity”.
